Source: patent US10100022B2, “Sphingosine kinase inhibitors” (University of Virginia Patent Foundation, priority 2014, dated 2018)
Counter-ions that a name gives are not always drawn.

Assays:
[1] = patients, 1-yr trial; cited from earlier work
[2] = molecular target: T1, human sphingosine kinase type 2 (hSPHK2) (Homo sapiens, UniProt Q9NRA0); experiment: Sphingosine kinase assay, recombinant human SPHK2 ([32P]S1P product, scintillation counting); format: biochemical; conditions: read-out: activity hSPHK2 (range estimate of KI)
T1 construct: purchased; host or cells: Sf9 insect cells (baculovirus)
T1 sequence (Q9NRA0 1-654): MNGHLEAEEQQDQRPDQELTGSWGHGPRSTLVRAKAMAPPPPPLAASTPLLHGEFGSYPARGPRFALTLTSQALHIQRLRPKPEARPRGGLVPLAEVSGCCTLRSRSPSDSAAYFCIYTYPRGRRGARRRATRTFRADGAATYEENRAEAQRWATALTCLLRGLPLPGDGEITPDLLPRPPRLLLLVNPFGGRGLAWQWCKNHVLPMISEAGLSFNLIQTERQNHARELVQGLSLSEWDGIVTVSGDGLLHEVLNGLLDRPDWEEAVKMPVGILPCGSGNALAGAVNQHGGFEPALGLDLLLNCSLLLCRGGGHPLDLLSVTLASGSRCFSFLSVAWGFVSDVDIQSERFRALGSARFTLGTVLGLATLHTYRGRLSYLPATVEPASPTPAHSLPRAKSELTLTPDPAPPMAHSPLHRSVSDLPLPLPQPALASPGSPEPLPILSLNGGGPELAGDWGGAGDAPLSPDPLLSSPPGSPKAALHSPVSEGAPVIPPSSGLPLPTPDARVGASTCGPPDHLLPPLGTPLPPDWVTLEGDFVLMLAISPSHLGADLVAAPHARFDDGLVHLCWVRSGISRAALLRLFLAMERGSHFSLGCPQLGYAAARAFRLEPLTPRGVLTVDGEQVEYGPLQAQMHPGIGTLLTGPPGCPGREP
In short: (§1)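 SPHK1 from cleared lysates of baculovirus-infected Sf9 cells, unpurified; SPHK2 partially purified from Sf9 lysates. Standard sphingosine kinase protocol; [32P]S1P product captured on cation exchange paper and counted by scintillation.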

[3] = molecular target: T2, human sphingosine kinase type 1 (hSPHK1) (Homo sapiens, UniProt Q9NYA1); experiment: Sphingosine kinase assay, recombinant human SPHK1 ([32P]S1P product, scintillation counting); format: biochemical; conditions: read-out: activity hSPHK1 (range estimate of KI)
T2 construct: made in house; host or cells: Sf9 insect cells (baculovirus)
T2 sequence (Q9NYA1 whole entry): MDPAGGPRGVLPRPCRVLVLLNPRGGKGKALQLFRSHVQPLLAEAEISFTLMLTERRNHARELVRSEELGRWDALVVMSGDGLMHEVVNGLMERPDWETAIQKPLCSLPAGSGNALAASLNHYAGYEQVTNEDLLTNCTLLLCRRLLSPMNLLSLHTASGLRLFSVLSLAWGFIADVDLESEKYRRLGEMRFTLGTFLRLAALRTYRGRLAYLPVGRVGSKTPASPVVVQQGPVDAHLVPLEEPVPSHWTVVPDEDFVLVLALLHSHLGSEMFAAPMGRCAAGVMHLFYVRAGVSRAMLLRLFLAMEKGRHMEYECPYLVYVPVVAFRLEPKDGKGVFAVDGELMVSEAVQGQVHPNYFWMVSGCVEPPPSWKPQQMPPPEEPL
In short: as §1

Row | Ki [2] [µM] | Ki [3] [µM] | Compound | modest hypertension [1]
1 |  |  | CCCCCCCCc1ccc(CCC(N)(CO)CO)cc1 [fingolimod, 2-amino-2-[2-(4-octylphenyl)ethyl] propane 1,3-diol] | 2-3 mmHg
2 | < 1 | > 10 | CCCCCC=CCOc1ccc(-c2noc([C@@H]3CCCN3C(=N)N)n2)cc1C(F)(F)F [Compound 82A, (S)-amino(2-(3-(4-(oct-2-en-1-yloxy)-3-(trifluoromethyl)phenyl)-1,2,4-oxadiazol-5-yl)pyrrolidin-1-yl)methaniminium 2,2,2-trifluoroacetate] | 
3 | 1 to 10 | > 10 | N=C(N)N1CCC[C@H]1c1nc(-c2ccc(CCC3CCCC3)c(C(F)(F)F)c2)no1 [Compound 44A, (S)-2-(3-(4-(2-cyclopentylethyl)-3-(trifluoromethyl)phenyl)-1,2,4-oxadiazol-5-yl)pyrrolidine-1-carboximidamide hydrochloride] | 
4 | 1 to 10 | > 10 | CCCCCCCCOc1ccc(-c2noc([C@@H]3C[C@H](F)CN3C(=N)N)n2)cc1C(F)(F)F [Compound 48A, (2S,4S)-4-fluoro-2-(3-(4-(octyloxy)-3-(trifluoromethyl)phenyl)-1,2,4-oxadiazol-5-yl)pyrrolidine-1-carboximidamide 2,2,2-trifluoroacetate] | 
